Laboratory results from PMC6072256 (ACS Omega, 2018).

Target: chymotrypsin (Bos taurus, UniProt P00766)
Experiment: chymotrypsin inhibition assay
Type: biochemical
Conditions: protease inhibition test; statement of the abstract

streptopeptolin [compound 1]
inhibitory activity against chymotrypsin (in words): showed inhibitory activity
